Experimental data taken from PubChem BioAssay AID256 (DTP/NCI, 2004).
Toxic doses and inconclusive results are not listed. The calls were made as follows: active = survival T/C of 150% or more; inactive = T/C below 125% in these data.

Tested on: CD2F1 mice, L1210 leukemia ip, survival T/C
Experiment: NCI In Vivo Anticancer Drug Screen. Data for tumor model L1210 Leukemia (intraperitoneal) in CD2F1 (CDF1) mice
Details: higher = longer survival
In short: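 Mice carrying a transplanted tumor received test compound or vehicle alone. The value is the measurement in the treated group divided by that in the vehicle-treated control group.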

[1] = endpoint: mean survival time, dose: 100.0 mg/kg/injection, schedule: Q04DX003 (ip), vehicle: saline with Tween-80
[2] = endpoint: mean survival time, dose: 400.0 mg/kg/injection, schedule: Q04DX003 (ip), vehicle: saline with Tween-80
[3] = endpoint: mean survival time, dose: 100.0 mg/kg/injection, schedule: Q01DX009 (ip), vehicle: saline with Tween-80
[4] = endpoint: mean survival time, dose: 200.0 mg/kg/injection, schedule: Q01DX009 (ip), vehicle: saline with Tween-80
[5] = endpoint: mean survival time, dose: 400.0 mg/kg/injection, schedule: Q01DX009 (ip), vehicle: saline with Tween-80
[6] = endpoint: mean survival time, dose: 200.0 mg/kg/injection, schedule: Q04DX003 (ip), vehicle: saline with Tween-80
[7] = endpoint: mean survival time, dose: 50.0 mg/kg/injection, schedule: Q04DX003 (ip), vehicle: saline with Tween-80
[8] = endpoint: mean survival time, dose: 100.0 mg/kg/injection, schedule: Q01DX001 (ip), vehicle: saline
[9] = endpoint: mean survival time, dose: 200.0 mg/kg/injection, schedule: Q01DX001 (ip), vehicle: saline
[10] = endpoint: mean survival time, dose: 400.0 mg/kg/injection, schedule: Q01DX001 (ip), vehicle: saline

Measured: T/C

CCCC[N-]CC(O)C[NH-].O=C(O)CC(=O)O.[Pt+2] (centres undefined)
inactive: endpoint: median survival time, dose: 10.0 mg/kg/injection, schedule: Q04DX003 (ip), vehicle: water 105 % of control | endpoint: median survival time, dose: 20.0 mg/kg/injection, schedule: Q04DX003 (ip), vehicle: water 103 % of control | endpoint: median survival time, dose: 40.0 mg/kg/injection, schedule: Q04DX003 (ip), vehicle: water 105 % of control | endpoint: median survival time, dose: 50.5 mg/kg/injection, schedule: Q04DX003 (ip), vehicle: water 103 % of control | endpoint: median survival time, dose: 80.0 mg/kg/injection, schedule: Q04DX003 (ip), vehicle: water 97 % of control | endpoint: median survival time, dose: 101.0 mg/kg/injection, schedule: Q04DX003 (ip), vehicle: water 103 % of control | endpoint: median survival time, dose: 202.0 mg/kg/injection, schedule: Q04DX003 (ip), vehicle: water 107 % of control

O=C1c2ccccc2C(Cl)=C(Cl)C1(Cl)Cl
inactive: endpoint: mean survival time, dose: 12.5 mg/kg/injection, schedule: Q01DX009 (ip), vehicle: saline with Tween-80 92 % of control | endpoint: mean survival time, dose: 25.0 mg/kg/injection, schedule: Q01DX009 (ip), vehicle: saline with Tween-80 101 % of control | endpoint: mean survival time, dose: 50.0 mg/kg/injection, schedule: Q01DX009 (ip), vehicle: saline with Tween-80 101 % of control | [1] 96 % of control | [2] 100 % of control

O=C1OC(=O)N2N=CC=CC12 (centres undefined)
inactive: endpoint: mean survival time, dose: 100.0 mg/kg/injection, schedule: Q01DX001 (ip), vehicle: saline sonified 96 % of control | endpoint: mean survival time, dose: 200.0 mg/kg/injection, schedule: Q01DX001 (ip), vehicle: saline sonified 98 % of control | endpoint: mean survival time, dose: 400.0 mg/kg/injection, schedule: Q01DX001 (ip), vehicle: saline sonified 94 % of control

Cc1ccc([N+](=O)[O-])cc1NC(=O)NNC(=O)CNC(=O)Nc1cccc(C(F)(F)F)c1
inactive: [3] 92 % of control | [4] 89 % of control | [5] 96 % of control

COc1ccc2cc(O)ccc2c1
inactive: [3] 96 % of control | [1] 104 % of control | [4] 98 % of control | [6] 113 % of control | [5] 100 % of control | [2] 90 % of control

CN=C(N)CS
inactive: endpoint: mean survival time, dose: 25.0 mg/kg/injection, schedule: Q04DX002 (ip), vehicle: saline 101 % of control | endpoint: mean survival time, dose: 50.0 mg/kg/injection, schedule: Q04DX002 (ip), vehicle: saline 101 % of control | endpoint: mean survival time, dose: 100.0 mg/kg/injection, schedule: Q04DX002 (ip), vehicle: saline 101 % of control

Cc1cnc(Br)c(Br)c1
inactive: endpoint: mean survival time, dose: 100.0 mg/kg/injection, schedule: Q01DX001 (ip), vehicle: saline with Tween-80 101 % of control | [3] 110 % of control | endpoint: mean survival time, dose: 200.0 mg/kg/injection, schedule: Q01DX001 (ip), vehicle: saline with Tween-80 101 % of control | [4] 100 % of control | endpoint: mean survival time, dose: 400.0 mg/kg/injection, schedule: Q01DX001 (ip), vehicle: saline with Tween-80 103 % of control | [5] 100 % of control

CC(C)(C)NC(=S)Nc1ccccc1
inactive: [7] 100 % of control | [1] 94 % of control | [6] 91 % of control

Cn1c(=O)c(Br)cc2ccccc21
inactive: [8] 102 % of control | [9] 96 % of control | [10] 96 % of control

O=C(CC(=O)Oc1ccc(Cl)cc1Cl)Oc1ccc(Cl)cc1Cl
inactive: [1] 97 % of control | [6] 101 % of control | [2] 95 % of control

CCN(CC)c1ccc(NC(=O)c2ccc(C(=O)Nc3ccc(N(CC)CC)cc3)cc2)cc1
inactive: [8] 89 % of control | [9] 92 % of control | [10] 92 % of control

O=C(O)CN1C(=O)CNC12CCCCC2
inactive: endpoint: mean survival time, dose: 100.0 mg/kg/injection, schedule: Q04DX003 (ip), vehicle: other 102 % of control | endpoint: mean survival time, dose: 200.0 mg/kg/injection, schedule: Q04DX003 (ip), vehicle: other 88 % of control | endpoint: mean survival time, dose: 400.0 mg/kg/injection, schedule: Q04DX003 (ip), vehicle: other 104 % of control

O=C(NC(CO)C(O)c1ccc(N=Nc2cccc3ccccc23)cc1)C(Cl)Cl (centres undefined)
inactive: [3] 100 % of control | [4] 101 % of control | [5] 101 % of control

Cc1cc([N+](=O)[O-])cc(C)c1O
inactive: [1] 100 % of control | [6] 96 % of control | [2] 100 % of control

O=[N+]([O-])c1cc(Cl)ccc1O
inactive: [3] 93 % of control | [4] 90 % of control

[N-]=[N+]=CC(=O)NCC(=O)NNC(=O)c1ccccc1
inactive: [3] 105 % of control | [1] 96 % of control | [4] 107 % of control | [6] 104 % of control | [5] 108 % of control | [2] 105 % of control

CC(=O)OCC1OC(n2ncc(=O)[nH]c2=O)C(OC(C)=O)C1OC(C)=O (centres undefined)
inactive: endpoint: mean survival time, dose: 12.5 mg/kg/injection, schedule: Q03HX024 (ip), vehicle: saline 112 % of control | endpoint: mean survival time, dose: 25.0 mg/kg/injection, schedule: Q03HX024 (ip), vehicle: saline 116 % of control | endpoint: mean survival time, dose: 50.0 mg/kg/injection, schedule: Q03HX024 (ip), vehicle: saline 106 % of control | [8] 106 % of control | [9] 103 % of control | [10] 106 % of control | endpoint: mean survival time, dose: 400.0 mg/kg/injection, schedule: Q01DX009 (ip), vehicle: saline 108 % of control | endpoint: mean survival time, dose: 800.0 mg/kg/injection, schedule: Q01DX001 (ip), vehicle: saline 117 % of control | endpoint: mean survival time, dose: 800.0 mg/kg/injection, schedule: Q01DX009 (ip), vehicle: saline 93 % of control

CCOC(=O)C(C(=O)OCC)n1c(=O)c2c(ncn2C)n(C)c1=O
inactive: endpoint: mean survival time, dose: 200.0 mg/kg/injection, schedule: Q01DX005 (ip), vehicle: distilled water + Tween-80 102 % of control | endpoint: mean survival time, dose: 400.0 mg/kg/injection, schedule: Q01DX005 (ip), vehicle: distilled water + Tween-80 101 % of control

CCCCNC(=O)C1C=C2c3cccc4c3C(CN4)CC2N(C)C1 (centres undefined)
inactive: [7] 88 % of control | [1] 91 % of control | [6] 96 % of control

Cc1cccc(SC(=O)Nc2ccc(Cl)cc2C)c1
inactive: [3] 95 % of control | [4] 95 % of control

CN(C)N=Nc1ccccc1-c1nc(N)c2ccccc2n1
inactive: endpoint: mean survival time, dose: 6.25 mg/kg/injection, schedule: Q01DX005 (ip), vehicle: water 103 % of control | endpoint: mean survival time, dose: 12.5 mg/kg/injection, schedule: Q01DX005 (ip), vehicle: water 88 % of control | endpoint: mean survival time, dose: 25.0 mg/kg/injection, schedule: Q01DX005 (ip), vehicle: water 109 % of control | endpoint: mean survival time, dose: 50.0 mg/kg/injection, schedule: Q01DX005 (ip), vehicle: water 117 % of control | endpoint: mean survival time, dose: 100.0 mg/kg/injection, schedule: Q01DX005 (ip), vehicle: water 98 % of control

O=C(c1ccccc1)C1(O)CCCCC1
inactive: endpoint: mean survival time, dose: 50.0 mg/kg/injection, schedule: Q01DX009 (ip), vehicle: saline sonified 97 % of control | endpoint: mean survival time, dose: 100.0 mg/kg/injection, schedule: Q01DX009 (ip), vehicle: saline sonified 105 % of control | endpoint: mean survival time, dose: 200.0 mg/kg/injection, schedule: Q01DX009 (ip), vehicle: saline sonified 97 % of control

COC(=O)C(CCC1CCCCC1)CC1CCCCC1 (centres undefined)
inactive: endpoint: mean survival time, dose: 100.0 mg/kg/injection, schedule: Q04DX003 (ip), vehicle: acetone 108 % of control | endpoint: mean survival time, dose: 200.0 mg/kg/injection, schedule: Q04DX003 (ip), vehicle: acetone 102 % of control | endpoint: mean survival time, dose: 400.0 mg/kg/injection, schedule: Q04DX003 (ip), vehicle: acetone 108 % of control
